Marks after values point to notes of the source that are not given here.
Assay: Safety and tolerability
Type: in vivo, human
[1] = 20 mg bid 11 d solution, fasted, nonelderly
[2] = 50 mg bid 11 d solution, fasted, nonelderly
[3] = 100 mg bid 11 d solution, fed, nonelderly
[4] = 200 mg bid 7 d capsule, fasted, elderly
[5] = 200 mg bid 11 d solution, fasted, nonelderly
[6] = 300 mg bid 7 d capsule, fasted, elderly
[7] = 400 mg bid 11 d capsule, fasted, nonelderly
[8] = 500 mg bid 11 d capsule, fed, nonelderly
[9] = 500 mg bid 11 d tablet, fasted, elderly
[10] = 800 mg bid 11 d tablet, fasted, elderly

SMILES: CCCOc1ccc([C@H]2CNC(=O)N2c2ccc3[nH]cnc3c2)cc1 [PQ912]
- Abdominal pain, number of TEAEs [1]: 1 [1]
- Abdominal pain, number of subjects [1]: 1 [1]
- Headache, number of TEAEs [1]: 7
- Headache, number of subjects [1]: 3
- Neck pain, number of TEAEs [1]: 1 [1]
- Neck pain, number of subjects [1]: 1 [1]
- Number of AEs [1]: 16
- Subjects with AEs, number [1]: 7
- Subjects with AEs, percentage of total subjects [1]: 87.5%
- Abdominal pain, number of TEAEs [2]: 1 [1]
- Abdominal pain, number of subjects [2]: 1 [1]
- Chest pain, number of TEAEs [2]: 1 [1]
- Chest pain, number of subjects [2]: 1 [1]
- Dizziness, number of TEAEs [2]: 1 [1]
- Dizziness, number of subjects [2]: 1 [1]
- Headache, number of TEAEs [2]: 8
- Headache, number of subjects [2]: 4
- Injection site pain, number of TEAEs [2]: 6
- Injection site pain, number of subjects [2]: 5
- Nausea, number of TEAEs [2]: 1 [1]
- Nausea, number of subjects [2]: 1 [1]
- Number of AEs [2]: 22
- Subjects with AEs, number [2]: 7
- Subjects with AEs, percentage of total subjects [2]: 87.5%
- Back pain, number of TEAEs [3]: 1 [1]
- Back pain, number of subjects [3]: 1 [1]
- Chest pain, number of TEAEs [3]: 1 [1]
- Chest pain, number of subjects [3]: 1 [1]
- Headache, number of TEAEs [3]: 4
- Headache, number of subjects [3]: 3
- Injection site pain, number of TEAEs [3]: 3 [3]
- Injection site pain, number of subjects [3]: 3 [3]
- Number of AEs [3]: 16
- Presyncope, number of TEAEs [3]: 6 [6]
- Presyncope, number of subjects [3]: 6 [6]
- Subjects with AEs, number [3]: 8
- Subjects with AEs, percentage of total subjects [3]: 100.0%
- Number of AEs [4]: 3
- Subjects with AEs, number [4]: 3
- Subjects with AEs, percentage of total subjects [4]: 50.0%
- Abdominal pain, number of TEAEs [5]: 1 [1]
- Abdominal pain, number of subjects [5]: 1 [1]
- Back pain, number of TEAEs [5]: 1 [1]
- Back pain, number of subjects [5]: 1 [1]
- Chest pain, number of TEAEs [5]: 1 [1]
- Chest pain, number of subjects [5]: 1 [1]
- Diarrhea, number of TEAEs [5]: 1 [1]
- Diarrhea, number of subjects [5]: 1 [1]
- Flatulence, number of TEAEs [5]: 1 [1]
- Flatulence, number of subjects [5]: 1 [1]
- Nausea, number of TEAEs [5]: 1 [1]
- Nausea, number of subjects [5]: 1 [1]
- Neck pain, number of TEAEs [5]: 1 [1]
- Neck pain, number of subjects [5]: 1 [1]
- Number of AEs [5]: 11
- Subjects with AEs, number [5]: 6
- Subjects with AEs, percentage of total subjects [5]: 75.0%
- Back pain, number of TEAEs [6]: 1 [1]
- Back pain, number of subjects [6]: 1 [1]
- Headache, number of TEAEs [6]: 4 [4]
- Headache, number of subjects [6]: 4 [4]
- Injection site pain, number of TEAEs [6]: 4 [4]
- Injection site pain, number of subjects [6]: 4 [4]
- Number of AEs [6]: 13
- Pain in extremity, number of TEAEs [6]: 2
- Pain in extremity, number of subjects [6]: 1
- Subjects with AEs, number [6]: 6
- Subjects with AEs, percentage of total subjects [6]: 75.0%
- Abdominal pain, number of TEAEs [7]: 1 [1]
- Abdominal pain, number of subjects [7]: 1 [1]
- Back pain, number of TEAEs [7]: 1 [1]
- Back pain, number of subjects [7]: 1 [1]
- Headache, number of TEAEs [7]: 4
- Headache, number of subjects [7]: 3
- Number of AEs [7]: 9
- Presyncope, number of TEAEs [7]: 1 [1]
- Presyncope, number of subjects [7]: 1 [1]
- Subjects with AEs, number [7]: 5
- Subjects with AEs, percentage of total subjects [7]: 62.5%
- Abdominal pain, number of TEAEs [8]: 1 [1]
- Abdominal pain, number of subjects [8]: 1 [1]
- Abnormal sensation in eye, number of TEAEs [8]: 2 [2]
- Abnormal sensation in eye, number of subjects [8]: 2 [2]
- Back pain, number of TEAEs [8]: 5
- Back pain, number of subjects [8]: 4
- Diarrhea, number of TEAEs [8]: 1 [1]
- Diarrhea, number of subjects [8]: 1 [1]
- Dizziness, number of TEAEs [8]: 2 [2]
- Dizziness, number of subjects [8]: 2 [2]
- Headache, number of TEAEs [8]: 3 [3]
- Headache, number of subjects [8]: 3 [3]
- Nausea, number of TEAEs [8]: 1 [1]
- Nausea, number of subjects [8]: 1 [1]
- Number of AEs [8]: 30 ^‡
- Pain in extremity, number of TEAEs [8]: 2 [2]
- Pain in extremity, number of subjects [8]: 2 [2]
- Subjects with AEs, number [8]: 8
- Subjects with AEs, percentage of total subjects [8]: 100.0%
- Abdominal pain, number of TEAEs [9]: 1 [1]
- Abdominal pain, number of subjects [9]: 1 [1]
- Back pain, number of TEAEs [9]: 1 [1]
- Back pain, number of subjects [9]: 1 [1]
- Constipation, number of TEAEs [9]: 2 [2]
- Constipation, number of subjects [9]: 2 [2]
- Contusion, number of TEAEs [9]: 3
- Contusion, number of subjects [9]: 2
- Diarrhea, number of TEAEs [9]: 1 [1]
- Diarrhea, number of subjects [9]: 1 [1]
- Dizziness, number of TEAEs [9]: 2
- Dizziness, number of subjects [9]: 1
- Headache, number of TEAEs [9]: 4
- Headache, number of subjects [9]: 2
- Injection site pain, number of TEAEs [9]: 1 [1]
- Injection site pain, number of subjects [9]: 1 [1]
- Nausea, number of TEAEs [9]: 4
- Nausea, number of subjects [9]: 3
- Number of AEs [9]: 32
- Subjects with AEs, number [9]: 9
- Subjects with AEs, percentage of total subjects [9]: 75.0%
- Chest pain, number of TEAEs [10]: 2
- Chest pain, number of subjects [10]: 1
- Constipation, number of TEAEs [10]: 2 [2]
- Constipation, number of subjects [10]: 2 [2]
- Contusion, number of TEAEs [10]: 1 [1]
- Contusion, number of subjects [10]: 1 [1]
- Diarrhea, number of TEAEs [10]: 1 [1]
- Diarrhea, number of subjects [10]: 1 [1]
- Flatulence, number of TEAEs [10]: 3 [3]
- Flatulence, number of subjects [10]: 3 [3]
- Headache, number of TEAEs [10]: 2 [2]
- Headache, number of subjects [10]: 2 [2]
- Nausea, number of TEAEs [10]: 2 [2]
- Nausea, number of subjects [10]: 2 [2]
- Neck pain, number of TEAEs [10]: 1 [1]
- Neck pain, number of subjects [10]: 1 [1]
- Number of AEs [10]: 34
- Pollakiuria, number of TEAEs [10]: 2 [2]
- Pollakiuria, number of subjects [10]: 2 [2]
- Subjects with AEs, number [10]: 6
- Subjects with AEs, percentage of total subjects [10]: 100%
- subjects withdrawn because of a TEAE (urticaria papular) (500-mg bid, 11 days, capsule, fed, about 3.5 hours after the 18th dose): One subject
- drug-related TEAEs, events (after multiple doses, 102 subjects (PQ912 or placebo)): 113
- subjects reporting drug-related TEAEs (after multiple doses, of 102 subjects (PQ912 or placebo)): 47
- drug-related TEAEs, events (after single doses, 104 subjects (PQ912 or placebo)): 25
- subjects reporting drug-related TEAEs (after single doses, of 104 subjects (PQ912 or placebo)): 16
- subjects with clinically significant changes in clinical laboratory parameters (increases in serum potassium, erythrocytes, leukocytes): four subjects
- Back pain, number of TEAEs (single 30 mg solution, fasted): 1 [1]
- Back pain, number of subjects (single 30 mg solution, fasted): 1 [1]
- Number of AEs (single 30 mg solution, fasted): 2
- Subjects with AEs, number (single 30 mg solution, fasted): 2
- Subjects with AEs, percentage of total subjects (single 30 mg solution, fasted): 33.3%
- Back pain, number of TEAEs (single 50 mg solution, fasted): 1 [1]
- Back pain, number of subjects (single 50 mg solution, fasted): 1 [1]
- Fatigue, number of TEAEs (single 50 mg solution, fasted): 1 [1]
- Fatigue, number of subjects (single 50 mg solution, fasted): 1 [1]
- Headache, number of TEAEs (single 50 mg solution, fasted): 3
- Headache, number of subjects (single 50 mg solution, fasted): 2
- Injection site pain, number of TEAEs (single 50 mg solution, fasted): 1 [1]
- Injection site pain, number of subjects (single 50 mg solution, fasted): 1 [1]
- Nausea, number of TEAEs (single 50 mg solution, fasted): 1 [1]
- Nausea, number of subjects (single 50 mg solution, fasted): 1 [1]
- Number of AEs (single 50 mg solution, fasted): 11
- Subjects with AEs, number (single 50 mg solution, fasted): 5
- Subjects with AEs, percentage of total subjects (single 50 mg solution, fasted): 83.3%
- Vomiting, number of TEAEs (single 50 mg solution, fasted): 2
- Vomiting, number of subjects (single 50 mg solution, fasted): 1
- Back pain, number of TEAEs (single 100 mg solution, fasted): 3 [3]
- Back pain, number of subjects (single 100 mg solution, fasted): 3 [3]
- Fatigue, number of TEAEs (single 100 mg solution, fasted): 1 [1]
- Fatigue, number of subjects (single 100 mg solution, fasted): 1 [1]
- Number of AEs (single 100 mg solution, fasted): 7
- Subjects with AEs, number (single 100 mg solution, fasted): 3
- Subjects with AEs, percentage of total subjects (single 100 mg solution, fasted): 37.5%
- Back pain, number of TEAEs (single 400 mg solution, fasted): 2 [2]
- Back pain, number of subjects (single 400 mg solution, fasted): 2 [2]
- Headache, number of TEAEs (single 400 mg solution, fasted): 1 [1]
- Headache, number of subjects (single 400 mg solution, fasted): 1 [1]
- Injection site pain, number of TEAEs (single 400 mg solution, fasted): 1 [1]
- Injection site pain, number of subjects (single 400 mg solution, fasted): 1 [1]
- Number of AEs (single 400 mg solution, fasted): 7
- Presyncope, number of TEAEs (single 400 mg solution, fasted): 1 [1]
- Presyncope, number of subjects (single 400 mg solution, fasted): 1 [1]
- Subjects with AEs, number (single 400 mg solution, fasted): 4
- Subjects with AEs, percentage of total subjects (single 400 mg solution, fasted): 33.3%
- Nausea, number of TEAEs (single 800 mg capsule, fasted): 1 [1]
- Nausea, number of subjects (single 800 mg capsule, fasted): 1 [1]
- Number of AEs (single 800 mg capsule, fasted): 2
- Subjects with AEs, number (single 800 mg capsule, fasted): 1
- Subjects with AEs, percentage of total subjects (single 800 mg capsule, fasted): 16.7%
- Vomiting, number of TEAEs (single 800 mg capsule, fasted): 1 [1]
- Vomiting, number of subjects (single 800 mg capsule, fasted): 1 [1]
- Headache, number of TEAEs (single 1200 mg capsule, fed): 1 [1]
- Headache, number of subjects (single 1200 mg capsule, fed): 1 [1]
- Number of AEs (single 1200 mg capsule, fed): 2
- Subjects with AEs, number (single 1200 mg capsule, fed): 1
- Subjects with AEs, percentage of total subjects (single 1200 mg capsule, fed): 16.7%
- Nausea, number of TEAEs (single 1800 mg tablet, fasted): 2 [2]
- Nausea, number of subjects (single 1800 mg tablet, fasted): 2 [2]
- Number of AEs (single 1800 mg tablet, fasted): 2
- Subjects with AEs, number (single 1800 mg tablet, fasted): 2
- Subjects with AEs, percentage of total subjects (single 1800 mg tablet, fasted): 33.3%
- overall safety and tolerability (single doses up to 3600 mg, bid doses up to 800 mg): safe and well tolerated
- serious adverse events (whole study): no serious adverse events
- vital signs, 12-lead ECGs, telemetry, physical examinations (whole study): no clinically significant findings

Source: PMC5975062 (Alzheimer's & Dementia : Translational Research & Clinical …, 2015)
